Measured values taken from article PMC6850446, “In vivo inactivation of glycosidases by conduritol B epoxide and cyclophellitol as revealed by activity‐based protein profiling” (The Febs Journal, 2019).
Like-named read-outs stand apart in the source and are kept apart here.

What was measured:
GANAB (zebrafish larvae) = tested on: T1, GANAB (zebrafish larvae); experiment: live larvae exposed, residual activity in lysate with 4MU-alpha-D-glucopyranoside; design: species or system Danio rerio; conditions: covalent; in vivo: concentration in egg water, 5 days at 28.5 °C; assay pH 7.0; read-out: CBE / Enz. assay
T1 construct: endogenous enzyme in larvae, measured in larval lysate; paralogues not distinguished
Source text: live larvae exposed, residual activity in lysate with 4MU-alpha-D-glucopyranoside on GANAB (zebrafish larvae)

[1] = molecular target: T2, GBA2 (nonlysosomal glucosylceramidase) (Homo sapiens, UniProt Q9HCG7); experiment: intact cells treated, residual activity in lysate with 4MU-glucoside; type: cell-based
T2 construct: human GBA2 stably expressed in HEK293T; 110 kDa on gel
T2 sequence (Q9HCG7 1-927): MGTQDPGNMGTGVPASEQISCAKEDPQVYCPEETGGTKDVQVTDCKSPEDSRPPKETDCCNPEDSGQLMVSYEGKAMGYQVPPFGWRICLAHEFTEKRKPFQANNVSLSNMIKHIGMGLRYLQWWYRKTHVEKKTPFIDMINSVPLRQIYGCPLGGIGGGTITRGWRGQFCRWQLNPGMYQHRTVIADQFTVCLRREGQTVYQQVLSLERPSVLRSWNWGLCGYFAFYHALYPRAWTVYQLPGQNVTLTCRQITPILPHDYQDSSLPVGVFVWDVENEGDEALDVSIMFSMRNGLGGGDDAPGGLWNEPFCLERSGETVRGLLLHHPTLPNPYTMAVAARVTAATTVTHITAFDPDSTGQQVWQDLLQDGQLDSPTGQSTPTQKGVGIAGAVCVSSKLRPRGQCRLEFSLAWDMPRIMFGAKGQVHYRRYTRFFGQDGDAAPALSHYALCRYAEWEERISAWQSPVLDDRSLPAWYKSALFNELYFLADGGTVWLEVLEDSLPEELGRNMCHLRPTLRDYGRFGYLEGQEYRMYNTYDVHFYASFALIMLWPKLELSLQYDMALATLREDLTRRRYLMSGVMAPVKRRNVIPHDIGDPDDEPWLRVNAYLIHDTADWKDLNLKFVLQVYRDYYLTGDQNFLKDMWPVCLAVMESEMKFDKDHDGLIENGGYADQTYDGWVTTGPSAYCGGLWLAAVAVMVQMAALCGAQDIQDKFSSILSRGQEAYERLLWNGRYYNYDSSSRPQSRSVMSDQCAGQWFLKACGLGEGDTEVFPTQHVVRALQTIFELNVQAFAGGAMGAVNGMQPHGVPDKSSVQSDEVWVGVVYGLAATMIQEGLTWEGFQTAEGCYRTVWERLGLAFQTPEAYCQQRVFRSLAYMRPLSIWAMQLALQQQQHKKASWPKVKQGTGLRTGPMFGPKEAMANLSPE
Source text: intact cells treated, residual activity in lysate with 4MU-glucoside on GBA2 (nonlysosomal glucosylceramidase)

GUSB (zebrafish larvae) = molecular target: T3, GUSB (zebrafish larvae) (Danio rerio, UniProt F1QGS9); experiment: live larvae exposed, residual activity in lysate with 4MU-beta-D-glucuronide; conditions: covalent; in vivo: concentration in egg water, 5 days at 28.5 °C; assay pH 5.0; read-out: CBE / Enz. assay
T3 construct: endogenous enzyme in larvae, measured in larval lysate
T3 sequence (F1QGS9 26-644): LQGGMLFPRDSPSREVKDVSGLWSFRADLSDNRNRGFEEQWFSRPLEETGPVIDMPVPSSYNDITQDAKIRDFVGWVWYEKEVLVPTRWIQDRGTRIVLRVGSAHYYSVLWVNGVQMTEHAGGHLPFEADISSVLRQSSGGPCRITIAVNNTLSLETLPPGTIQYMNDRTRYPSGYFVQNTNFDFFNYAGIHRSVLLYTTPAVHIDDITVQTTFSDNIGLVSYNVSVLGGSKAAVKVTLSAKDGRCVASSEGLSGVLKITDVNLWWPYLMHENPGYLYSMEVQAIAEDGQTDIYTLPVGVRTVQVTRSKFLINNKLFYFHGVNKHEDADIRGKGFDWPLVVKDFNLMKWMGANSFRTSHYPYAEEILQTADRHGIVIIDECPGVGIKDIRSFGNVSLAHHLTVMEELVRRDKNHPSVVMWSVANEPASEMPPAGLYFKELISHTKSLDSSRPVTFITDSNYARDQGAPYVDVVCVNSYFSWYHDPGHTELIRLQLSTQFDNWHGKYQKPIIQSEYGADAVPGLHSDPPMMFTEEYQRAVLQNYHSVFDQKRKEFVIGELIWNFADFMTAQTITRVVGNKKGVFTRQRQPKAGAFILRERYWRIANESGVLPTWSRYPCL
Source text: live larvae exposed, residual activity in lysate with 4MU-beta-D-glucuronide on GUSB (zebrafish larvae)

GBA3 = molecular target: T4, GBA3 (Homo sapiens, UniProt Q9H227); experiment: intact cells treated, residual activity in lysate supernatant with 4MU-glucoside; type: cell-based
T4 construct: human GBA3 overexpressed in HEK293T; expected 45-53 kDa
T4 sequence (Q9H227 1-469): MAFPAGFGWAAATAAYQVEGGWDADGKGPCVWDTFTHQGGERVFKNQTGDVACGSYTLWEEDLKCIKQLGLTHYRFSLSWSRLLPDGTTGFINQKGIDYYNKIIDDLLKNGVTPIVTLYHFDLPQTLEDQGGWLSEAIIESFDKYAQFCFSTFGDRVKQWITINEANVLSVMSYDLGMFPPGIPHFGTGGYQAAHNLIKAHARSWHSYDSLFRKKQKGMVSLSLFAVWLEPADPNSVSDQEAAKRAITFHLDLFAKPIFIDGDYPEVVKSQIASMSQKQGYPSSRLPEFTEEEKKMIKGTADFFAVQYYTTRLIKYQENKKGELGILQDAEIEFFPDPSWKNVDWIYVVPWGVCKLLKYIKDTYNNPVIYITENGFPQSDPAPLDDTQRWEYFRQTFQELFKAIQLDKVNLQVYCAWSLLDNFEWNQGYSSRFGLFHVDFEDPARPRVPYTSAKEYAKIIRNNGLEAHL
Source text: intact cells treated, residual activity in lysate supernatant with 4MU-glucoside on GBA3

SMILES	IC50 (GANAB (zebrafish larvae))	IC50 ([1]; read-out: CBE / Enz. assay)	IC50 (GUSB (zebrafish larvae))	IC50 (GBA3; read-out: CBE / Enz. assay)	IC50 ([1]; read-out: CP / Enz. assay)	IC50 (GBA3; read-out: CP / Enz. assay)
OC1C(O)C(O)C2OC2C1O (stereo not drawn) [compound 1, conduritol B epoxide]	4550 µM	272 µM	6380 µM	474 µM		
OC[C@@H]1[C@@H](O)[C@H](O)[C@@H](O)[C@@H]2O[C@H]12 [compound 2, cyclophellitol]					0.198 µM	> 10 µM
